Reference: patent US4057530A, “2-Phenyl-indole derivatives and process for preparing the same” (priority 1974, dated 1977)
“And” between values parts separate entries of the source, which are not always exact repeats. Equal entries are not always repeated. “Also recorded” adds a separate entry of the source. Where two headings read alike, the source gives them in different places.

How the values were obtained:
[1] = Extractibility of the stabilizer from Compound A containing Stabilizer 16
Method: This study was carried out in accordance with the requirements of the Food and Drug Administration (U.S.A.).
The extractions were performed in semi-rigid bottles, prepared with Compounds Nos. 609 and 675, and with the following solvents: water, an aqueous solution of acetic acid (3%), ethanol-water 50/50, heptane.
The ratio of the volume of solvent to the surface of plastic material exposed to extraction was about 1 cm^2 to […] of solvent, taking into account the geometric characteristics of the bottles.
The quantity of stabilizer extracted was determined by colorimetric assay using p-dimethylaminobenzaldehyde, in accordance with the method described in Analytical Chemistry 36, 425-26 (1964).
The amounts of stabilizer assayed are expressed in μg per liter of extraction solvent or, which is the same, per 1000 cm^2 of surface submitted to extraction.
The same trials were carried out with Compound A containing 2-(4'-dodecylthio-phenyl)-indole (Stabilizer 16) as stabilizer and the following results were obtained: […]

mice [2] = type: in vivo; settings: mouse, in vivo, po
Method: (§1) The study of the acute toxicity of the stabilizers listed below was carried out by determining the dose of substance which provoked the death of 50% of the treated animals (LD50). A gummy suspension of the substance under study was administered by oral route to groups of at least ten mice and the following results were observed: […]

[3] = Static thermostability of stabilized resin, simplified method (GARDNER sub-scale), Compound A; settings: 210° C
Method: (§2) The stabilizing power of the substances of the invention was studied from two points of view:
(§3) These studies were performed with six different formulae of vinyl resins (hereinafter referred to as Compounds).
(§4) The different compounds were mixed and calendered in a mixer of which the cylinders were heated to 160° C. The rigid sheets so obtained were then heated in an oven to a temperature between 180° C and 215° C, until incipient carbonization.
(§5) A stove with rotating drums, ventilated and equipped with a thermostat was used for this operation. In the trials described hereunder, the behaviour of a sheet containing the stabilizer to be tested was compared to that of a sheet of the same formula but containing 2-phenyl-indole as stabilizer.
(§6) 2. It is also possible to use a simplified method which is more rapid and with which valid results are also obtained: a reference scale is drawn up with sheets of thermally treated polyvinyl chloride, of which the colourations have been definitely determined in GARDNER degrees as above. A GARDNER sub-scale is thus obtained in polyvinyl chloride sheets which can be directly compared to the sheets to be tested without using the comparator.
Finally, trials were carried out with Stabilizers 15, 16 and 17 and with 2-phenyl-indole. Compound A was used and the temperature was 210° C.

[4] = Static thermostability of stabilized resin, simplified method (GARDNER sub-scale), Compound E; settings: 185° C
Method: as §2, §3, §4, §5, §6

[5] = Static thermostability of stabilized resin, simplified method (GARDNER sub-scale), Compound C; settings: 210° C
Method: as §2, §3, §4, §5, §6

[6] = Thermostability of the stabilizers: thermogravimetric analysis; type: physicochemical; settings: 80° C/hour, under air
Method: The thermostability of Stabilizer 8 and that of 2-phenyl-indole were studied by differential thermoanalysis and by thermogravimetric analysis.
This analysis necessitated two series of trials carried out under air and under inert gas (Argon) in order to eliminate any possible effect of oxygen. The results obtained were identical.
The temperature increase rate was 80° C/hour. Thermograms were drawn up under air for both 2-phenyl-indole (i) and for Stabilizer 8 (ii) and enabled the following conclusion to be drawn: […]

[7] = Static thermostability of stabilized resin, GARDNER Scale Comparator, Compound A; settings: 185° C
Method: as §2, §3, §4, §5
(§7) 1. The colouration of the sheets, of which samples were removed from the stove at fixed intervals was compared to a standard scale of colouration, known as the GARDNER Scale, and expressed in terms of the reference figures of the GARDNER Scale.
(§8) Comparisons were made with a GARDNER Scale Comparator which contains 18 filters of coloured glass and which offers the possibility of observing by transparency and in a limited field of view both the sheet and the reference filters.

[8] = Static thermostability of stabilized resin, simplified method (GARDNER sub-scale), Compound D; settings: 185° C
Method: as §2, §3, §4, §5, §6

[9] = type: physicochemical
Source text: The thermostability of Stabilizer 8 and that of 2-phenyl-indole were studied by differential thermoanalysis and by thermogravimetric analysis. […] Diagrams were made out for 2-phenyl-indole (i) and Compound 8 (ii) and enabled the following conclusions to be drawn: […]

mice [10] = experiment: Acute toxicity by oral route in mice (LD50); type: in vivo; settings: LD50 study
Method: as §1

[11] = Acute toxicity by oral route in mice (LD50); type: in vivo; settings: mouse, in vivo, gummy suspension
Method: as §1

[12] = Static thermostability of stabilized resin, GARDNER Scale Comparator, Compound B; settings: 210° C
Method: as §2, §3, §4, §5, §7, §8
Compound B was used and the sheets obtained presented the following characteristics: […]

[13] = Sticking of the stabilized material; settings: cylinders at 210° C, 3 min mixing / 3 min rest
Method: Compounds Nos. 609 and 675 were placed in a mixer of the type previously used for studying static thermostability with cylinders at a fixed temperature of 210° C.
They were submitted to alternate periods of 3 minutes of mixing and 3 minutes of rest.

[14] = Sublimation of the stabilizers; type: physicochemical; settings: 120° C, cold wall 13° C, 15 Torr, 150 min
Source text: A sample of the substance to be tested was introduced into a test tube and heated under reduced pressure. The fraction of sublimated substance was recovered on a mobile cold wall.
After a certain period of time, the sublimated substance was weighed and the result expressed as a percentage of the weight of the starting-material.
The results obtained can only be of relative value, enabling a comparison to be made between two products tested under the same conditions.
Operating conditions (chosen at random).
Temperature of heating 120° C
Temperature of the cold wall
Duration of heating 150 minutes

Structure (SMILES): CCCCCCCCCCCCSc1ccc(-c2cc3ccccc3[nH]2)cc1 [Stabilizer 16, 2-(4'-n-dodecylthio-phenyl)-indole]
- Amount of stabilizer extracted ([1]; 3% aqueous acetic acid, 20 days): < 3 μg per liter
- Amount of stabilizer extracted ([1]; aqueous ethanol 50/50, 9 days): < 10 μg per liter
- Amount of stabilizer extracted ([1]; heptane, 48 hours): 175 μg per liter
- Amount of stabilizer extracted ([1]; water, 10 days): < 3 μg per liter
- LDO (maximal dose which does not provoke any death) (mice [2]): > 3000 mg/kg
- Toxic symptoms (mice [2]): none
- Static thermostability compared with 2-phenyl-indole [3]: very rapidly found to be superior to 2-phenyl-indole
- Colouration of sheet (GARDNER sub-scale) ([3]; 0 min): 1 GARDNER degrees
- Colouration of sheet (GARDNER sub-scale) ([3]; 3 min): 1 GARDNER degrees
- Colouration of sheet (GARDNER sub-scale) ([3]; 6 min): 2 GARDNER degrees
- Colouration of sheet (GARDNER sub-scale) ([3]; 9 min): 5 GARDNER degrees
- Colouration of sheet (GARDNER sub-scale) ([3]; 12 min): 10 GARDNER degrees
- Colouration of sheet (GARDNER sub-scale) ([3]; 15 min): 13 GARDNER degrees
- Colouration of sheet (GARDNER sub-scale) ([3]; 18 min): burnt

Structure (SMILES): c1ccc(-c2cc3ccccc3[nH]2)cc1 [2-phenyl-indole]
- Colouration of sheet (GARDNER sub-scale) ([4]; 0 min): < 1 GARDNER degrees
- Colouration of sheet (GARDNER sub-scale) ([4]; 10 min): 1 GARDNER degrees
- Colouration of sheet (GARDNER sub-scale) ([4]; 20 min): 2 GARDNER degrees
- Colouration of sheet (GARDNER sub-scale) ([4]; 30 min): 3 GARDNER degrees
- Colouration of sheet (GARDNER sub-scale) ([5]; 0 min): 1 GARDNER degrees
- Colouration of sheet (GARDNER sub-scale) ([5]; 10 min): 1.5 GARDNER degrees
- Colouration of sheet (GARDNER sub-scale) ([5]; 20 min): 2 GARDNER degrees
- Colouration of sheet (GARDNER sub-scale) ([5]; 30 min): < 3 GARDNER degrees
- Colouration of sheet (GARDNER sub-scale) ([5]; 40 min): 3 GARDNER degrees
- Colouration of sheet (GARDNER sub-scale) ([5]; 50 min): > 3 GARDNER degrees
- Colouration of sheet (GARDNER sub-scale) ([5]; 55 min): 3.5 GARDNER degrees
- Colouration of sheet (GARDNER sub-scale) ([5]; 60 min): > 4 GARDNER degrees
- Decomposition residue at 210° C [6]: a yellowish residue was, in fact, obtained at 210 °C which constitutes proof of decomposition
- Colouration of sheet (GARDNER Scale) ([7]; 0 min): 1 GARDNER degrees
- Colouration of sheet (GARDNER Scale) ([7]; 6 min): 1 GARDNER degrees
- Colouration of sheet (GARDNER Scale) ([7]; 12 min): 3 GARDNER degrees
- Colouration of sheet (GARDNER Scale) ([7]; 18 min): 5 GARDNER degrees
- Colouration of sheet (GARDNER Scale) ([7]; 24 min): 11 GARDNER degrees
- Colouration of sheet (GARDNER Scale) ([7]; 30 min): 12 GARDNER degrees
- Colouration of sheet (GARDNER Scale) ([7]; 36 min): 14 GARDNER degrees
- Colouration of sheet (GARDNER Scale) ([7]; 42 min): 14 GARDNER degrees
- Colouration of sheet (GARDNER Scale) ([7]; 48 min): 14 GARDNER degrees
- Colouration of sheet (GARDNER Scale) ([7]; 54 min): burnt
- Colouration of sheet (GARDNER sub-scale) ([8]; 0 min): 1 GARDNER degrees
- Colouration of sheet (GARDNER sub-scale) ([8]; 10 min): 2 GARDNER degrees
- Colouration of sheet (GARDNER sub-scale) ([8]; 20 min): > 2 GARDNER degrees
- Colouration of sheet (GARDNER sub-scale) ([8]; 30 min): 3 GARDNER degrees
- Temperature from which it particularly sublimates (melting point) [9]: 185-190 °C
- Loss of water at 100° C ([9]; 2° C/minute): no loss of water at 100 °C
- Sublimation temperature ([9]; 2° C/minute): 140 °C
- Toxic symptoms (mice [10]): none
- LD50 [11]: > 3000 mg/kg
- Colouration of sheet (GARDNER Scale) ([12]; 0 min): 1 GARDNER degrees
- Colouration of sheet (GARDNER Scale) ([12]; 3 min): 1 GARDNER degrees
- Colouration of sheet (GARDNER Scale) ([12]; 6 min): 2 GARDNER degrees
- Colouration of sheet (GARDNER Scale) ([12]; 9 min): 3 GARDNER degrees
- Colouration of sheet (GARDNER Scale) ([12]; 12 min): 4 GARDNER degrees
- Colouration of sheet (GARDNER Scale) ([12]; 15 min): 6 GARDNER degrees
- Colouration of sheet (GARDNER Scale) ([12]; 18 min): 8 GARDNER degrees
- Colouration of sheet (GARDNER Scale) ([12]; 21 min): > 18 GARDNER degrees
- Thickness of sheet ([12]; after 21 min): 0.9 mm
- State of sheet ([12]; after 24 min): burnt
- Sticking of the stabilized material [13]: comparable
- Percentage of sublimated substance [14]: 26.9%
- Colouration of sheet (GARDNER sub-scale) ([3]; 0 min): 1 GARDNER degrees
- Colouration of sheet (GARDNER sub-scale) ([3]; 3 min): 2 GARDNER degrees and 1 GARDNER degrees
- Colouration of sheet (GARDNER sub-scale) ([3]; 3 min, listed as 2-phenyl-inodle): 2 GARDNER degrees
- Colouration of sheet (GARDNER sub-scale) ([3]; 6 min): 2.5 GARDNER degrees and 2 GARDNER degrees and 3 GARDNER degrees
- Colouration of sheet (GARDNER sub-scale) ([3]; 6 min, listed as 2-phenyl-inodle): 3 GARDNER degrees
- Colouration of sheet (GARDNER sub-scale) ([3]; 9 min, listed as 2-phenyl-inodle): 8 GARDNER degrees
- Colouration of sheet (GARDNER sub-scale) ([3]; 12 min): 11 GARDNER degrees and 10 GARDNER degrees and 9 GARDNER degrees
- Colouration of sheet (GARDNER sub-scale) ([3]; 12 min, listed as 2-phenyl-inodle): 11 GARDNER degrees
- Colouration of sheet (GARDNER sub-scale) ([3]; 15 min): 13 GARDNER degrees and 12 GARDNER degrees and 14 GARDNER degrees
- Colouration of sheet (GARDNER sub-scale) ([3]; 15 min, listed as 2-phenyl-inodle): 12 GARDNER degrees
- Colouration of sheet (GARDNER sub-scale) ([3]; 18 min): burnt
- Burning of sheet ([3]; at 15 min): burnt along its edges; also recorded: badly burnt
